In US7166296B2, “Pharmaceutical formulations and ligands for use therein; mimetics for UEA-1” (Sarlan, Ltd., priority 2001, dated 2007):
In brackets after ≈: the same amount, converted by molar mass. Non-standard residues stand in square brackets, D forms with d. Residues, ends and D or L forms follow the SMILES beside them. *: point of attachment. Galloyl = O=C(c1cc(O)c(O)c(O)c1)*; Orn = NCCC[CH](N)C(=O)O; Dab = NCC[CH](N)C(=O)O; Dap = NC[C@H](N)C(=O)O

Assays:
[1] = tested on: UEA-1 binding sites on Caco-2 cell membrane preparations; experiment: Two tier competition assay: compound incubated alone with membranes, biotinylated UEA-1 added in next step; set-up: species or system human; settings: for IC 50 (ug/ml) 2nd tier / IC50: Table 8, galloyl constructs; for IC50: read-out: IC 50 (uM) 2nd tier; for Avg % Inhibition: Two Tier Assay, library MSI 26
Method in brief: (§1)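 Plates coated with Caco-2 membrane preparation (10 μg/ml, carbonate buffer pH 9.6) and BSA-blocked. Single tier: compound and biotinylated UEA-1 incubated together overnight. Two tier: compound incubated overnight with membranes first, biotinylated UEA-1 added next. Bound UEA-1 detected by streptavidin-HRP/OPD, OD490.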

[2] = tested on: UEA-1 binding sites on Caco-2 cell membrane preparations; experiment: Single tier competition assay: inhibition of biotinylated UEA-1 binding, compound and biotinylated UEA-1 incubated together; set-up: species or system human; settings: for IC 50 (ug/ml) 1st tier / IC50: Table 8, galloyl constructs; for IC50: read-out: IC 50 (uM) 1st tier (converted); for Avg % Inhibtion: Single Tier Assay, library MSI 26
Method in brief: as §1

SMILES | IC 50 (ug/ml) 2nd tier [1] | IC50 [1] [µM] | IC 50 (ug/ml) 1st tier [2] | IC50 [2] [µM] | Avg % Inhibition ([1]; 62.5 μg/ml) [%] | Avg % Inhibition ([1]; 250 μg/ml) [%] | Avg % Inhibtion ([2]; 62.5 μg/ml) [%] | Avg % Inhibtion ([2]; 250 μg/ml) [%]
NC(=O)C(CCCNC(=O)c1cc(O)c(O)c(O)c1)NC(=O)c1cc(O)c(O)c(O)c1 (stereo not drawn) [MSI 34 #3] | 0.7 µg/mL (≈ 1.61 µM) | 2 | 2 µg/mL (≈ 4.59 µM) | 4 |  |  |  | 
NC(=O)C(CCNC(=O)C(CCNC(=O)c1cc(O)c(O)c(O)c1)NC(=O)c1cc(O)c(O)c(O)c1)NC(=O)C(CCNC(=O)c1cc(O)c(O)c(O)c1)NC(=O)c1cc(O)c(O)c(O)c1 (stereo not drawn) [MSI 34 #6] | 1 µg/mL (≈ 1.08 µM) | 1 | 0.6 µg/mL (≈ 0.648 µM) | 0.6 |  |  |  | 
NC(=O)C(CCCNC(=O)C(CCCNC(=O)c1cc(O)c(O)c(O)c1)NC(=O)c1cc(O)c(O)c(O)c1)NC(=O)C(CCCNC(=O)c1cc(O)c(O)c(O)c1)NC(=O)c1cc(O)c(O)c(O)c1 (stereo not drawn) [MSI 34 #7] | 1 µg/mL (≈ 1.03 µM) | 1 | 0.9 µg/mL (≈ 0.93 µM) | 0.9 |  |  |  | 
NC(=O)C(Cc1ccc(NC(=O)C(Cc2ccc(NC(=O)c3cc(O)c(O)c(O)c3)cc2)NC(=O)c2cc(O)c(O)c(O)c2)cc1)NC(=O)C(Cc1ccc(NC(=O)c2cc(O)c(O)c(O)c2)cc1)NC(=O)c1cc(O)c(O)c(O)c1 (stereo not drawn) [MSI 34 #8] | 3 µg/mL (≈ 2.7 µM) | 2 | 4 µg/mL (≈ 3.6 µM) | 4 |  |  |  | 
CC(=O)NC(Cc1ccc(NC(=O)c2cc(O)c(O)c(O)c2)cc1)C(=O)NC(Cc1ccc(NC(=O)c2cc(O)c(O)c(O)c2)cc1)C(=O)NC(Cc1ccc(NC(=O)c2cc(O)c(O)c(O)c2)cc1)C(N)=O (stereo not drawn) [MSI 34 #16] | 6 µg/mL (≈ 5.99 µM) | 6 | 3 µg/mL (≈ 2.99 µM) | 3 |  |  |  | 
NC(=O)C(CCNC(=O)c1cc(O)c(O)c(O)c1)NC(=O)C(CCNC(=O)c1cc(O)c(O)c(O)c1)NC(=O)C(CCNC(=O)c1cc(O)c(O)c(O)c1)NC(=O)c1cc(O)c(O)c(O)c1 (stereo not drawn) [MSI 34 #18] | 0.9 µg/mL (≈ 0.972 µM) | 1 | 3 µg/mL (≈ 3.24 µM) | 3 |  |  |  | 
NC(=O)C(CCCNC(=O)c1cc(O)c(O)c(O)c1)NC(=O)C(CCCNC(=O)c1cc(O)c(O)c(O)c1)NC(=O)C(CCCNC(=O)c1cc(O)c(O)c(O)c1)NC(=O)c1cc(O)c(O)c(O)c1 (stereo not drawn) [MSI 34 #19] | 1 µg/mL (≈ 1.03 µM) | 1 | 11 µg/mL (≈ 11.4 µM) | 11 |  |  |  | 
NC(=O)C(Cc1ccc(NC(=O)c2cc(O)c(O)c(O)c2)cc1)NC(=O)C(Cc1ccc(NC(=O)c2cc(O)c(O)c(O)c2)cc1)NC(=O)C(Cc1ccc(NC(=O)c2cc(O)c(O)c(O)c2)cc1)NC(=O)c1cc(O)c(O)c(O)c1 (stereo not drawn) [MSI 34 #20] | 6 µg/mL (≈ 5.4 µM) | 5 | 2 µg/mL (≈ 1.8 µM) | 2 |  |  |  | 
CC(=O)NC(CCNC(=O)c1cc(O)c(O)c(O)c1)C(=O)NC(CCNC(=O)c1cc(O)c(O)c(O)c1)C(=O)NC(CCNC(=O)c1cc(O)c(O)c(O)c1)C(=O)NC(CCNC(=O)c1cc(O)c(O)c(O)c1)C(N)=O (stereo not drawn) [MSI 34 #22] (Ac-[Dab](Galloyl)[Dab](Galloyl)[Dab](Galloyl)[Dab](Galloyl)-NH2; configuration not given here) | 1 µg/mL (≈ 0.936 µM) | 1 | 3 µg/mL (≈ 2.81 µM) | 3 |  |  |  | 
CC(=O)NC(CCCNC(=O)c1cc(O)c(O)c(O)c1)C(=O)NC(CCCNC(=O)c1cc(O)c(O)c(O)c1)C(=O)NC(CCCNC(=O)c1cc(O)c(O)c(O)c1)C(=O)NC(CCCNC(=O)c1cc(O)c(O)c(O)c1)C(N)=O (stereo not drawn) [MSI 34 #23] (Ac-[Orn](Galloyl)[Orn](Galloyl)[Orn](Galloyl)[Orn](Galloyl)-NH2; configuration not given here) | 1 µg/mL (≈ 0.89 µM) | 1 | 6 µg/mL (≈ 5.34 µM) | 5 |  |  |  | 
CC(=O)N[C@H](CCCCNC(=O)c1cc(O)c(O)c(O)c1)C(=O)N[C@H](CCCCNC(=O)c1cc(O)c(O)c(O)c1)C(=O)N[C@H](CCCCNC(=O)c1cc(O)c(O)c(O)c1)C(=O)N[C@H](CCCCNC(=O)c1cc(O)c(O)c(O)c1)C(N)=O [MSI 39 #12] (Ac-[dK](Galloyl)[dK](Galloyl)[dK](Galloyl)[dK](Galloyl)-NH2) | 3 µg/mL (≈ 2.54 µM) | 2 | 8 µg/mL (≈ 6.78 µM) | 7 |  |  |  | 
COC(=O)c1cc(O)c(O)c(O)c1 [Methyl 3,5,4-trihydroxybenzoate, reference compound] |  |  |  |  | −11 | −8 | 1 | 4.5

Further lines, with some results ahead:

IC 50 (ug/ml) 2nd tier [1] | IC50 [1] [µM] | IC 50 (ug/ml) 1st tier [2] | IC50 [2] [µM] | SMILES | Avg % Inhibition ([1]; 62.5 μg/ml) [%] | Avg % Inhibition ([1]; 250 μg/ml) [%] | Avg % Inhibtion ([2]; 62.5 μg/ml) [%] | Avg % Inhibtion ([2]; 250 μg/ml) [%]
1 µg/mL (≈ 1.13 µM) | 1 | 0.5 µg/mL (≈ 0.566 µM) | 0.5 | NC(=O)C(CNC(=O)C(CNC(=O)c1cc(O)c(O)c(O)c1)NC(=O)c1cc(O)c(O)c(O)c1)NC(=O)C(CNC(=O)c1cc(O)c(O)c(O)c1)NC(=O)c1cc(O)c(O)c(O)c1 (stereo not drawn) [MSI 34 1π5] |  |  |  | 
0.8 µg/mL (≈ 1.96 µM) | 2 | 1 µg/mL (≈ 2.45 µM) | 4 | NC(=O)[C@H](CNC(=O)c1cc(O)c(O)c(O)c1)NC(=O)c1cc(O)c(O)c(O)c1 [MSI 34 #1] |  |  |  | 
0.5 µg/mL (≈ 0.775 µM) | 0.8 | 0.6 µg/mL (≈ 0.929 µM) | 0.9 | NC(=O)C(CNC(=O)c1cc(O)c(O)c(O)c1)NC(=O)C(CNC(=O)c1cc(O)c(O)c(O)c1)NC(=O)c1cc(O)c(O)c(O)c1 (stereo not drawn) [MSI 34 #9] |  |  |  | 
0.7 µg/mL (≈ 1.04 µM) | 1 | 0.6 µg/mL (≈ 0.891 µM) | 0.9 | NC(=O)C(CCNC(=O)c1cc(O)c(O)c(O)c1)NC(=O)C(CCNC(=O)c1cc(O)c(O)c(O)c1)NC(=O)c1cc(O)c(O)c(O)c1 (stereo not drawn) [MSI 34 #10] |  |  |  | 
0.8 µg/mL (≈ 1.14 µM) | 1 | 1 µg/mL (≈ 1.43 µM) | 2 | NC(=O)C(CCCNC(=O)c1cc(O)c(O)c(O)c1)NC(=O)C(CCCNC(=O)c1cc(O)c(O)c(O)c1)NC(=O)c1cc(O)c(O)c(O)c1 (stereo not drawn) [MSI 34 #11] |  |  |  | 
4 µg/mL (≈ 5.01 µM) | 5 | 6 µg/mL (≈ 7.52 µM) | 8 | NC(=O)C(Cc1ccc(NC(=O)c2cc(O)c(O)c(O)c2)cc1)NC(=O)C(Cc1ccc(NC(=O)c2cc(O)c(O)c(O)c2)cc1)NC(=O)c1cc(O)c(O)c(O)c1 (stereo not drawn) [MSI 34 #12] |  |  |  | 
1st tier = 22nd tier = 2 ug/ml | 2 | 1st tier = 22nd tier = 2 ug/ml | 3 | CC(=O)NC(CNC(=O)c1cc(O)c(O)c(O)c1)C(=O)NC(CNC(=O)c1cc(O)c(O)c(O)c1)C(=O)NC(CNC(=O)c1cc(O)c(O)c(O)c1)C(N)=O (stereo not drawn) [MSI 34 #13] |  |  |  | 
1 µg/mL (≈ 1.23 µM) | 1 | 2 µg/mL (≈ 2.45 µM) | 2 | CC(=O)NC(CCNC(=O)c1cc(O)c(O)c(O)c1)C(=O)NC(CCNC(=O)c1cc(O)c(O)c(O)c1)C(=O)NC(CCNC(=O)c1cc(O)c(O)c(O)c1)C(N)=O (stereo not drawn) [MSI 34 #14] |  |  |  | 
2 µg/mL (≈ 2.33 µM) | 2 | 8 µg/mL (≈ 9.33 µM) | 9 | CC(=O)NC(CCCNC(=O)c1cc(O)c(O)c(O)c1)C(=O)NC(CCCNC(=O)c1cc(O)c(O)c(O)c1)C(=O)NC(CCCNC(=O)c1cc(O)c(O)c(O)c1)C(N)=O (stereo not drawn) [MSI 34 #15] |  |  |  | 
0.7 µg/mL (≈ 0.792 µM) | 0.8 | 1 µg/mL (≈ 1.13 µM) | 1 | NC(=O)C(CNC(=O)c1cc(O)c(O)c(O)c1)NC(=O)C(CNC(=O)c1cc(O)c(O)c(O)c1)NC(=O)C(CNC(=O)c1cc(O)c(O)c(O)c1)NC(=O)c1cc(O)c(O)c(O)c1 (stereo not drawn) [MSI 34 #17] |  |  |  | 
1 µg/mL (≈ 0.988 µM) | 1 | 2 µg/mL (≈ 1.98 µM) | 2 | CC(=O)N[C@@H](CNC(=O)c1cc(O)c(O)c(O)c1)C(=O)N[C@@H](CNC(=O)c1cc(O)c(O)c(O)c1)C(=O)N[C@@H](CNC(=O)c1cc(O)c(O)c(O)c1)C(=O)N[C@@H](CNC(=O)c1cc(O)c(O)c(O)c1)C(N)=O [MSI 34 #21] (Ac-[Dap](Galloyl)[Dap](Galloyl)[Dap](Galloyl)[Dap](Galloyl)-NH2) |  |  |  | 
0.8 µg/mL (≈ 0.802 µM) | 0.7 | 6 µg/mL (≈ 6.02 µM) | 5 | NC(=O)C(CNC(=O)C(CNC(=O)c1cc(O)c(O)c(O)c1)NC(=O)c1cc(O)c(O)c(O)c1)NC(=O)CCCCCNC(=O)C(CNC(=O)c1cc(O)c(O)c(O)c1)NC(=O)c1cc(O)c(O)c(O)c1 (stereo not drawn) [MSI 39 #4] |  |  |  | 
